One compound from EP4596561A1, “PHOSPHORUS-CONTAINING COMPOUND, PHARMACEUTICAL COMPOSITION AND USE THEREOF” (Suzhou Genhouse Bio Co., Ltd., priority 2022, dated 2024) can be followed below.

Series [1] can be described thus: Stability test in liver microsomes. It counts as in vitro ADME, CD-1 mouse. The conditions noted are these: mouse liver microsomes, 0.5 mg/mL, 1.0 µM substrate. As for the experimental part:
Phase I metabolic stability of the test compounds in liver microsomes of CD-1 mice, Sprague-Dawley rats, and humans was assessed.
The animal and human liver microsomes used in the test system were purchased from Xenotech, Corning, or other qualified suppliers and stored in a freezer at a temperature below -60 °C prior to use. The information of the animal and human liver microsomes used was as follows:
The test samples and the reference compounds were separately incubated with animal and human liver microsomes at 37±1 °C for a period of incubation time of up to 60 min. The samples were taken out at the indicated time points, and the reaction was stopped with acetonitrile or another organic solvent containing an internal standard. After centrifugation, the resulting supernatants were assayed by the liquid chromatography-tandem mass spectrometry (LC-MS/MS) method.
Microsomes of each species were diluted into a 2× working solution with a 100 mM potassium phosphate buffer. […]
Incubation was performed in a 96-well plate. Eight incubation plates were prepared and designated T0, T5, T15, T30, T45, T60, Blank60, and NCF60, respectively. The first 6 plates corresponded to reaction time points of 0 min, 5 min, 15 min, 30 min, 45 min, and 60 min, respectively. No test sample or reference compound was added to the Blank60 plate, and samples were taken after 60 min of incubation. In the NCF60 plate, incubation was performed for 60 min using the potassium phosphate buffer instead of the NADPH regeneration system solution. Three replicates were made for samples in all conditions.
The microsomes and the test sample or reference compound were mixed, and then the incubation plates Blank60, T5, T15, T30, T45, and T60 except for T0 and NCF60 were placed in a 37 °C water bath for pre-incubation for about 10 min. In the incubation plate T0, a stop solution was first added, followed by the addition of the NADPH regeneration system working solution, and 98 µL of the potassium phosphate buffer was added to each sample well of the incubation plate NCF60 to initiate the reaction. After the pre-incubation of the incubation plates Blank60, T5, T15, T30, T45, and T60 was completed, 98 µL of the NADPH regeneration system working solution was added to each sample well to initiate the reaction. The reaction temperature was 37±1 °C, the final volume of the reaction was 200 µL, and the reaction system included 0.5 mg/mL microsomes, 1.0 µM substrate, 1 mM NADP, 6 mM ISO, and 1 unit/mL IDH.
At 5 min, 15 min, 30 min, 45 min, and 60 min, a cold stop solution containing an internal standard was added to the reaction plate to stop the reaction.
All the reaction plates after the reaction was stopped were shaken well and centrifuged at 3220× g at 4 °C for 20 min. After the supernatant was diluted at a certain ratio, LC-MS/MS analysis was performed.
Sample analysis was performed by the liquid chromatography-tandem mass spectrometry (LC-MS/MS) method without standard curves and quality control samples. Semi-quantitative determination was performed according to the ratio of the analyte peak area to the internal standard peak area. The retention times of the analyte and internal standard, the chromatogram acquisition, and chromatogram integration were processed using the Analyst software (Sciex, Framingham, Massachusetts, USA).
According to the well stir model, the hepatic intrinsic clearance and hepatic clearance can be converted through the following formula. CL(liver) = (CLint(liver)×Qh)/(CLint(liver)+Qh) [formula]

The nature of series [2]: Pharmacokinetic test in mice (low dose). It counts as in vivo, Balb/c mice. To be noted: mouse, in vivo, mice; for AUC(0-t): read-out: AUClast; for half-life: read-out: T1/2 (converted).
Series [3] can be described thus: Pharmacokinetic test in rats. To be noted: rat, plasma, SD rats. It counts as in vivo. As for the experimental part:
In this experimental example, the pharmacokinetic behavior of the test compounds after administration by intravenous injection (IV) and oral gavage (PO) in SD rats was tested. Preparation of formulations for administration referred to the low-dose pharmacokinetic test in mice.
On the day of administration, rats were weighed for actual body weight, and the administration volume was calculated. Each compound was tested in two groups with 3 rats in each group; one group was subjected to administration by single intravenous injection, and the other group was subjected to administration by single gavage. The whole blood samples were collected via the jugular vein at prescribed time points (0.25 h, 0.5 h, 1 h, 2 h, 4 h, 8 h, and 24 h after administration). After the blood sample collection, the samples were immediately transferred to labeled commercial sample tubes containing K2-EDTA (0.85-1.15 mg), followed by centrifugation (3200× g, 4 °C, 10 min) and plasma collection. The plasma was transferred to a pre-cooled centrifuge tube, frozen in dry ice, and then stored in an ultra-low temperature freezer at -60 °C or lower until the LC-MS/MS analysis was performed.
Plasma concentrations were determined by the LC-MS/MS method. Plasma drug concentration data for the compounds were processed using a non-compartmental model in the WinNonlin Version 6.3 (Pharsight, Mountain View, CA) pharmacokinetic software. The relevant pharmacokinetic parameters were calculated by a linear-log trapezoidal method.

The MRT is a mean duration of stay, worked out from the concentration-time curve. One may read the Cmax as the peak of the concentration-time curve. Compound `CP(C)(=O)c1cnc(Nc2ccc(C(F)(F)F)cc2)c(-c2cn3c(n2)CCC3)c1` [Example 22] registered a half-life at 1 µM in series [1] greater than 2.42 h. For the same compound, the MRT in series [2] (IV 2 mg/kg) was 10.8 h; in series [2] (PO 10 mg/kg), 9.9 h; in series [3] (IV 2 mg/kg), 7.6 h; in series [3] (PO 10 mg/kg), 9.6 h. Besides, the AUC(0-t) is 16.4 µM·h in series [2] (IV 2 mg/kg), 96.4 µM·h in series [2] (PO 10 mg/kg), 6.42 µM·h in series [3] (IV 2 mg/kg) and 32.2 µM·h in series [3] (PO 10 mg/kg). In addition, the clearance in series [2] (IV 2 mg/kg, read-out: Cl (converted)) was 4.17 mL/min/kg; in series [3] (IV 2 mg/kg), 11 mL/min/kg. The half-life in series [2] (IV 2 mg/kg) was 8.9 h; in series [2] (PO 10 mg/kg), 7.6 h; in series [3] (IV 2 mg/kg), 5.8 h; in series [3] (PO 10 mg/kg), 7.3 h. The bioavailability in series [2] (PO 10 mg/kg vs IV 2 mg/kg, read-out: F%) worked out at 114%; in series [3] (PO 10 mg/kg vs IV 2 mg/kg) it was 95%. In addition, the Cmax in series [2] (PO 10 mg/kg, read-out: Cmax) came to 7.07 µM.
